Here are results for one compound from patent publication US20110182953A1, “P[…] OF CALCIUM ACAMPROSATE” (priority 2009, published 2011).

Each structure is given as a SMILES string.

This data set can be described thus: accelerated stability tests. The settings on record: exposed to heat and/or humidity sources. The data set is classed as physicochemical.

Take `CC(=O)NCCCS(=O)(=O)O` [form B, calcium acamprosate]: the “stability of the polymorphic form in accelerated stability tests” value was “does not alter”.
